{"source": "paper PMC6245549", "about": "(Journal of medicinal chemistry, 2018)", "key": {"kinases": {"tested_on": "kinases", "conditions": "100 nM; no reference given; cited from earlier work"}, "BRD4(2)": {"target": "BRD4(2) (Homo sapiens, UniProt O60885)", "assay": "Fluorescence anisotropy, BRD4"}, "BRD4(1) [1]": {"target": "T1, BRD4(1) (Homo sapiens, UniProt O60885)", "assay": "Fluorescence anisotropy, BRD4"}, "p38α [2]": {"target": "T2, p38α (Homo sapiens, UniProt Q16539)", "T2 sequence (Q16539 whole entry)": "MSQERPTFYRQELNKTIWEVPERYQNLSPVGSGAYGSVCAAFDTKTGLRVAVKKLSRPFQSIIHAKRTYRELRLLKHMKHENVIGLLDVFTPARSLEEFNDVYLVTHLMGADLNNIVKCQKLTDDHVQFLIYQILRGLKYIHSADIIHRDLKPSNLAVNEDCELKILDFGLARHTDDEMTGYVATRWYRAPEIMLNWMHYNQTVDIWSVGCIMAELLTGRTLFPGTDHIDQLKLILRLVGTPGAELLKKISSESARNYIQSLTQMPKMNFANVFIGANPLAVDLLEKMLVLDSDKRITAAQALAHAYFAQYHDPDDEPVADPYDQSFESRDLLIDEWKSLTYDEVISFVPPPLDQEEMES", "assay": "Cellular thermal-shift assay", "type": "cell-based", "conditions": "A549 cells, isothermal denaturation, dose-dependent"}, "[3]": {"tested_on": "MSK1 phosphorylation at T581", "assay": "Phosphorylation state of MSK1", "type": "cell-based"}, "p38β": {"target": "p38β (Homo sapiens, UniProt Q15759)", "sequence (Q15759 whole entry)": "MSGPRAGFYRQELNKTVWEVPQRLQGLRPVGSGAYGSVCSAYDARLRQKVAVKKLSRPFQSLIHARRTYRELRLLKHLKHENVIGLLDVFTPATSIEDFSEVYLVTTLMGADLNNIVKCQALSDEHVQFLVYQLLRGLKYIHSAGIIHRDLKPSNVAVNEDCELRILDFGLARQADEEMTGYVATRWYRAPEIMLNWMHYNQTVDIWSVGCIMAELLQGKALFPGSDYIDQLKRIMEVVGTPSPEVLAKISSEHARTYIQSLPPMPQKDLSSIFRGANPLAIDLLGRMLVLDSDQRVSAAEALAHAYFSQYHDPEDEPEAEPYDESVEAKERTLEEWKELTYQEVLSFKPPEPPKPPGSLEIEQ", "assay": "DiscoverX kinase-selectivity profiling, p38β", "type": "binding", "conditions": "1 μM, DiscoverX platform"}, "BPTF": {"target": "BPTF (Homo sapiens, UniProt Q12830)", "assay": "Protein-observed fluorine NMR", "type": "binding"}, "c-Myc": {"tested_on": "c-Myc", "assay": "Western blot of c-Myc levels in MM.1S cells", "type": "cell-based", "conditions": "6 h, concentrations approaching BRD4(1) Kd"}, "A549 cells": {"tested_on": "A549 cells", "assay": "Cytotoxicity toward A549 cells", "type": "cell-based"}, "p38α [4]": {"target": "T2, p38α", "assay": "DiscoverX kinase-selectivity profiling, p38α", "type": "binding", "conditions": "1 μM, DiscoverX platform"}, "BRDT(1)": {"target": "BRDT(1) (Homo sapiens, UniProt Q58F21)", "assay": "Protein-observed fluorine NMR", "type": "binding", "conditions": "50 μM 19F-labeled protein, W50"}, "[5]": {"tested_on": "yeast GCN5-like malarial protein (pfGCN5)", "assay": "Protein-observed fluorine NMR", "type": "binding"}, "BET D2s": {"tested_on": "BET D2s", "assay": "DiscoverX bromodomain-selectivity profiling, BET D2s", "type": "binding, human", "conditions": "10 μM"}, "BRD4 D1": {"target": "BRD4 D1 (Homo sapiens, UniProt O60885)", "assay": "ALPHAScreen, BRD4 D1"}, "IL-8 [6]": {"tested_on": "IL-8", "conditions": "20 μM; cited from earlier work"}, "BRD4(1) [7]": {"target": "T1, BRD4(1)", "assay": "Protein-observed fluorine NMR", "type": "binding"}, "A549-NF-κB-luc cells": {"tested_on": "A549-NF-κB-luc cells", "assay": "NF-κB luciferase reporter assay"}, "BRD4(1) [8]": {"target": "T1, BRD4(1)", "assay": "Isothermal-titration calorimetry", "type": "binding"}, "IL-8 [9]": {"tested_on": "IL-8", "assay": "IL-8 ELISA", "type": "cell-based", "conditions": "Homo sapiens, read-out: Inhibition of IL-8 cytokine production"}}, "data": [{"smiles": "C[S+]([O-])c1ccc(-c2nc(-c3ccc(F)cc3)c(-c3ccncc3)[nH]2)cc1", "note": "(centres unmarked) [SB203580]", "values": [{"measurement": "Kinase selectivity score", "setting": "kinases", "result": 0.024}]}, {"smiles": "Fc1ccc(-c2ncn(C3CCNCC3)c2-c2ccnc(Oc3cc(F)cc(F)c3)n2)cc1", "note": "[Compound VI, 2-(3,5-Difluorophenoxy)-4-(4-(4-fluorophenyl)-1-(piperidin-4-yl)-1H-imidazol-5-yl)pyrimidine]", "values": [{"measurement": "Binding to BRD4(2) / displacement of BI-BODIPY, in words", "setting": "BRD4(2)", "result": "only bound weakly"}, {"measurement": "Binding to BRD4(1), in words", "setting": "BRD4(1) [1]", "result": "only bound weakly"}]}, {"smiles": "Cc1cc(C)cc(Nc2nccc(-c3c(-c4ccc(F)cc4)ncn3C3CCNCC3)n2)c1", "note": "[Compound V, N-(3,5-Dimethylphenyl)-4-(4-(4-fluorophenyl)-1-(piperidin-4-yl)-1H-imidazol-5-yl)pyrimidin-2-amine]", "values": [{"measurement": "Concentration above which p38α is stabilized (CETSA)", "setting": "p38α [2]", "result": "> 1", "unit": "nM"}, {"measurement": "MSK1 phosphorylation at T581, in words", "setting": "[3]", "result": "decrease in levels of MSK1 phosphorylation"}, {"measurement": "Inhibitory activity against p38β, in words", "setting": "p38β", "result": "high inhibitory activity"}, {"measurement": "Binding to BPTF by PrOF NMR, in words", "setting": "BPTF", "result": "did not detect binding"}, {"measurement": "Expression of c-Myc oncoprotein, in words", "setting": "c-Myc", "result": "inhibited expression"}, {"measurement": "Concentration up to which cytotoxicity toward A549 cells is minimal", "setting": "A549 cells", "result": "≤ 10", "unit": "µM"}, {"measurement": "Inhibitory activity against p38α, in words", "setting": "p38α [4]", "result": "high inhibitory activity"}, {"measurement": "Small molecule needed to reach fully bound state of WPF-shelf resonance, BRDT(1)", "setting": "BRDT(1)", "result": "approximately 1 equiv."}, {"measurement": "Binding to GCN5-like malarial protein by PrOF NMR, in words", "setting": "[5]", "result": "did not detect binding"}, {"measurement": "Inhibition of BET D2s, DiscoverX", "setting": "BET D2s", "result": "7−27%"}]}, {"smiles": "Cc1cc(C)cc(Nc2nccc(-c3c(C)nnn3C3CCNCC3)n2)c1", "note": "[IX, N-(3,5-Dimethylphenyl)-4-(4-methyl-1-(piperidin-4-yl)-1H-1,2,3-triazol-5-yl)pyrimidin-2-amine]", "values": [{"measurement": "Enhancement of binding to BRD4(1) relative to VII", "setting": "BRD4 D1", "result": 20, "unit": "fold"}]}, {"smiles": "C=C1C(=O)O[C@H]2[C@H]1CC/C(C)=C/CC[C@@]1(C)O[C@@H]21", "note": "[parthenolide]", "values": [{"measurement": "IL-8 production, in words", "setting": "IL-8 [6]", "result": "decreased IL-8 production to baseline"}]}, {"smiles": "Cc1cc(C)cc(Nc2nccc(-c3c(-c4ccc(F)cc4)nnn3C3CCNCC3)n2)c1", "note": "[VII, N-(3,5-Dimethylphenyl)-4-(4-(4-fluorophenyl)-1-(piperidin-4-yl)-1H-1,2,3-triazol-5-yl)pyrimidin-2-amine]", "values": [{"measurement": "Binding to BRD4(1) by PrOF NMR, in words", "setting": "BRD4(1) [7]", "result": "bound BRD4(1) in a manner similar to that of compound V"}]}, {"smiles": "NC(=O)c1ccc(N(C(N)=O)c2c(F)cccc2F)nc1-c1ccc(F)cc1F", "note": "[VX-702]", "values": [{"measurement": "Inhibition in NF-κB reporter assay, in words", "setting": "A549-NF-κB-luc cells", "result": "limited inhibitory effects"}]}, {"smiles": "Cc1ccc(Nc2nccc(-c3c(-c4ccc(F)cc4)ncn3C3CCNCC3)n2)cc1C", "note": "[Compound IV, N-(3,4-Dimethylphenyl)-4-(4-(4-fluorophenyl)-1-(piperidin-4-yl)-1H-imidazol-5-yl)pyrimidin-2-amine]", "values": [{"measurement": "MSK1 phosphorylation at T581, in words", "setting": "[3]", "result": "decrease in levels of MSK1 phosphorylation"}, {"measurement": "Expression of c-Myc oncoprotein, in words", "setting": "c-Myc", "result": "inhibited expression"}, {"measurement": "Concentration up to which cytotoxicity toward A549 cells is minimal", "setting": "A549 cells", "result": "≤ 25", "unit": "µM"}, {"measurement": "Entropy of binding in ITC", "setting": "BRD4(1) [8]", "result": 5.0, "unit": "cal/mol/°C"}]}, {"smiles": "Cc1sc2c(c1C)C(c1ccc(Cl)cc1)=N[C@@H](CC(=O)OC(C)(C)C)c1nnc(C)n1-2", "note": "[(+)-JQ1, reference compound]", "values": [{"measurement": "MSK1 phosphorylation at T581, in words", "setting": "[3]", "result": "not observed"}, {"measurement": "inhibition at 1 µM", "setting": "IL-8 [9]", "result": 63, "unit": "%"}]}]}
